Reference: patent publication US10538487B2, “Sulfonylureas and related compounds and use of same” (priority 2015, dated 2020)
Where two headings read alike, the source gives them in different places.

Experiment: Single dose pharmacokinetic study in mice (iv 4 mg/Kg, po 20 mg/Kg), plasma concentration post-dosing
Assay type: in vivo, mouse
Conditions: male, C57BL/6, mouse, plasma, mouse; for concentration at 5 min: 5 min post dosing; for concentration at 0.25 h: 0.250 h post dosing; for concentration at 0.5 h: 0.500 h post dosing; for concentration at 1 h: 1.00 h post dosing; for concentration at 2 h: 2.00 h post dosing; for concentration at 4 h: 4.00 h post dosing; for concentration at 8 h: 8.00 h post dosing; for concentration at 24 h: 24.0 h post dosing
Experimental: This is advantageous leading to comparatively lower doses or less frequent administration. The procedure followed was: Male C57BL/6 mice were used at 7-9 weeks age with 3 animals per group. Mice were dosed with test compound using single intravenous bolus or oral gavage. Blood samples were taken via submandibular or saphenous vein for analysis of plasma concentrations of compound by LC-MS/MS at the following timepoints: IV (3 mice): 0.083, 0.25, 0.5, 1, 2, 4, 8 and 24 hours post dosing, PO (3 mice): 0.25, 0.5, 1, 2, 4, 8 and 24 hours post dosing. LC-MS/MS method for the quantitative determination of test compound in corresponding biological matrix was developed. […] The results are shown graphically in FIGS. 1A to 1C (MCC950) and FIGS. 2A to 2C (MCC7840).

concentration at 5 min (iv, 4 mg/kg, IV 4 mg/Kg, individual mice M1-M3, read-out: Plasma concentration, IV Time 0.0833 h): 47800 ng/mL
concentration at 5 min (iv, 4 mg/kg, IV 4 mg/Kg, mean of 3 mice, read-out: Plasma concentration, IV Time 0.0833 h, Mean IV): 42800 ng/mL
concentration at 0.25 h (iv, 4 mg/kg, IV 4 mg/Kg, individual mice M1-M3, read-out: Plasma concentration, IV Time 0.250 h): 28100 ng/mL
concentration at 0.25 h (iv, 4 mg/kg, IV 4 mg/Kg, mean of 3 mice, read-out: Plasma concentration, IV Time 0.250 h, Mean IV): 28900 ng/mL
concentration at 0.5 h (iv, 4 mg/kg, IV 4 mg/Kg, individual mice M1-M3, read-out: Plasma concentration, IV Time 0.500 h): 25200 ng/mL
concentration at 0.5 h (iv, 4 mg/kg, IV 4 mg/Kg, mean of 3 mice, read-out: Plasma concentration, IV Time 0.500 h, Mean IV): 25000 ng/mL
concentration at 1 h (iv, 4 mg/kg, IV 4 mg/Kg, individual mice M1-M3, read-out: Plasma concentration, IV Time 1.00 h): 19900 ng/mL
concentration at 1 h (iv, 4 mg/kg, IV 4 mg/Kg, mean of 3 mice, read-out: Plasma concentration, IV Time 1.00 h, Mean IV): 18700 ng/mL
concentration at 2 h (iv, 4 mg/kg, IV 4 mg/Kg, individual mice M1-M3, read-out: Plasma concentration, IV Time 2.00 h): 13300 ng/mL
concentration at 2 h (iv, 4 mg/kg, IV 4 mg/Kg, mean of 3 mice, read-out: Plasma concentration, IV Time 2.00 h, Mean IV): 16000 ng/mL
concentration at 4 h (iv, 4 mg/kg, IV 4 mg/Kg, individual mice M1-M3, read-out: Plasma concentration, IV Time 4.00 h): 6520 ng/mL
concentration at 4 h (iv, 4 mg/kg, IV 4 mg/Kg, mean of 3 mice, read-out: Plasma concentration, IV Time 4.00 h, Mean IV): 7890 ng/mL
concentration at 8 h (iv, 4 mg/kg, IV 4 mg/Kg, individual mice M1-M3, read-out: Plasma concentration, IV Time 8.00 h): 3490 ng/mL
concentration at 8 h (iv, 4 mg/kg, IV 4 mg/Kg, mean of 3 mice, read-out: Plasma concentration, IV Time 8.00 h, Mean IV): 3760 ng/mL
concentration at 24 h (iv, 4 mg/kg, IV 4 mg/Kg, individual mice M1-M3, read-out: Plasma concentration, IV Time 24.0 h): 149 ng/mL
concentration at 24 h (iv, 4 mg/kg, IV 4 mg/Kg, mean of 3 mice, read-out: Plasma concentration, IV Time 24.0 h, Mean IV): 134 ng/mL
AUC0-inf (iv, 4 mg/kg, IV 4 mg/Kg, individual mice M1-M3, read-out: AUC0-inf): 101 µg·h/mL
AUC(0-t) (iv, 4 mg/kg, IV 4 mg/Kg, individual mice M1-M3, read-out: AUC0-last): 100 µg·h/mL
C0 (iv, 4 mg/kg, IV 4 mg/Kg, individual mice M1-M3, read-out: C0): 62300 ng/mL
clearance (iv, 4 mg/kg, IV 4 mg/Kg, individual mice M1-M3, read-out: Cl): 0.659 mL/min/kg
MRT inf (iv, 4 mg/kg, IV 4 mg/Kg, individual mice M1-M3, read-out: MRT0-inf): 4.3 h
MRT last (iv, 4 mg/kg, IV 4 mg/Kg, individual mice M1-M3, read-out: MRT0-last): 4.11 h
half-life (iv, 4 mg/kg, IV 4 mg/Kg, individual mice M1-M3, read-out: T1/2 (converted)): 3.62 h
Vd (iv, 4 mg/kg, IV 4 mg/Kg, individual mice M1-M3, read-out: Vdss): 0.17 L/kg
AUC0-inf (iv, 4 mg/kg, IV 4 mg/Kg, mean of 3 mice, read-out: AUC0-inf, Mean IV): 108 µg·h/mL
AUC(0-t) (iv, 4 mg/kg, IV 4 mg/Kg, mean of 3 mice, read-out: AUC0-last, Mean IV): 107 µg·h/mL
clearance (iv, 4 mg/kg, IV 4 mg/Kg, mean of 3 mice, read-out: Cl, Mean IV): 0.621 mL/min/kg
MRT inf (iv, 4 mg/kg, IV 4 mg/Kg, mean of 3 mice, read-out: MRT0-inf, Mean IV): 4.29 h
MRT last (iv, 4 mg/kg, IV 4 mg/Kg, mean of 3 mice, read-out: MRT0-last, Mean IV): 4.13 h
half-life (iv, 4 mg/kg, IV 4 mg/Kg, mean of 3 mice, read-out: T1/2, Mean IV (converted)): 3.39 h
Vd (iv, 4 mg/kg, IV 4 mg/Kg, mean of 3 mice, read-out: Vdss, Mean IV): 0.16 L/kg
concentration at 0.25 h (po, 20 mg/kg, PO 20 mg/Kg, mean of 3 mice, read-out: Plasma concentration, PO Time 0.250 h, Mean PO): 60500 ng/mL
concentration at 0.5 h (po, 20 mg/kg, PO 20 mg/Kg, mean of 3 mice, read-out: Plasma concentration, PO Time 0.500 h, Mean PO): 50300 ng/mL
concentration at 1 h (po, 20 mg/kg, PO 20 mg/Kg, mean of 3 mice, read-out: Plasma concentration, PO Time 1.00 h, Mean PO): 42300 ng/mL
concentration at 2 h (po, 20 mg/kg, PO 20 mg/Kg, mean of 3 mice, read-out: Plasma concentration, PO Time 2.00 h, Mean PO): 42600 ng/mL
concentration at 4 h (po, 20 mg/kg, PO 20 mg/Kg, mean of 3 mice, read-out: Plasma concentration, PO Time 4.00 h, Mean PO): 26600 ng/mL
concentration at 8 h (po, 20 mg/kg, PO 20 mg/Kg, mean of 3 mice, read-out: Plasma concentration, PO Time 8.00 h, Mean PO): 18900 ng/mL
concentration at 24 h (po, 20 mg/kg, PO 20 mg/Kg, mean of 3 mice, read-out: Plasma concentration, PO Time 24.0 h, Mean PO): 1470 ng/mL
AUC0-inf (po, 20 mg/kg, PO 20 mg/Kg, individual mice M4-M6, read-out: AUC0-inf): 368 µg·h/mL
MRT last (po, 20 mg/kg, PO 20 mg/Kg, individual mice M4-M6, read-out: MRT0-last): 4.8 h
Tmax (po, 20 mg/kg, PO 20 mg/Kg, individual mice M4-M6, read-out: Tmax): 0.25 h
AUC0-inf (po, 20 mg/kg, PO 20 mg/Kg, mean of 3 mice, read-out: AUC0-inf, Mean PO): 362 µg·h/mL
AUC(0-t) (po, 20 mg/kg, PO 20 mg/Kg, mean of 3 mice, read-out: AUC0-last, Mean PO): 350 µg·h/mL
Cmax (po, 20 mg/kg, PO 20 mg/Kg, mean of 3 mice, read-out: Cmax, Mean PO): 60500 ng/mL
MRT inf (po, 20 mg/kg, PO 20 mg/Kg, mean of 3 mice, read-out: MRT0-inf, Mean PO): 7.52 h
Compound: CC(C)n1ccc(S(=O)(=O)NC(=O)Nc2c3c(cc4c2CCC4)CCC3)n1 [MCC_007840_002]
